Reference: patent US8648201B2, “Aminopyridine derivatives for treating tumors and inflammatory diseases” (MERCK PATENT GmbH, priority 2009, dated 2014)

Assays:
[1] = molecular target: T1, PDK1 (Homo sapiens, UniProt O15530); assay: Test for the inhibition of PDK1 (flashplate, 33P-ATP); format: biochemical; details: enzyme
T1 construct: His6 (N)
T1 sequence (O15530 51-556 limits assumed): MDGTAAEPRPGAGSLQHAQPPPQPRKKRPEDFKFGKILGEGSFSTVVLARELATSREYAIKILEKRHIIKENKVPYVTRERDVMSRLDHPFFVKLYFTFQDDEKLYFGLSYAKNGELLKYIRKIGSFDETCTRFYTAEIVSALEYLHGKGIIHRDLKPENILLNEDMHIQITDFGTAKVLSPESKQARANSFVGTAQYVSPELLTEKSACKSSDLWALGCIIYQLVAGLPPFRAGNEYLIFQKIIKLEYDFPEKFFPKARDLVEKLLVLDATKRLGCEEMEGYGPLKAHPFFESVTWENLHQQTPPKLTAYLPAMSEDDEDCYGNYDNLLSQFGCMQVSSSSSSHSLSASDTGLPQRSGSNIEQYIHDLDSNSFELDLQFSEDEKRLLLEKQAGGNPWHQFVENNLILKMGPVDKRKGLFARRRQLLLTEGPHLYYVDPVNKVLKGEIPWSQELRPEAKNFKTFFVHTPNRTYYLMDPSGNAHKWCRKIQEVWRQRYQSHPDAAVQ
Outline: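 His6-PDK1(1-50) (3.4 nM) incubated with biotinylated peptide substrate (400 nM), 4 μM ATP plus 33P-ATP and compound, 60 min at 30 °C. Incorporated radioactivity counted; blank with 100 nM staurosporine subtracted, activity as % of compound-free control. IC50 from dose series.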

[2] = molecular target: T2, PDK1 (Homo sapiens, UniProt O15530); assay: IC50 PDK1 (cell); format: cell-based
T2 construct: endogenous in cells; host or cells: commercially available colon carcinoma, ovary, prostate or breast cell lines (none named)
T2 sequence (O15530 1-556): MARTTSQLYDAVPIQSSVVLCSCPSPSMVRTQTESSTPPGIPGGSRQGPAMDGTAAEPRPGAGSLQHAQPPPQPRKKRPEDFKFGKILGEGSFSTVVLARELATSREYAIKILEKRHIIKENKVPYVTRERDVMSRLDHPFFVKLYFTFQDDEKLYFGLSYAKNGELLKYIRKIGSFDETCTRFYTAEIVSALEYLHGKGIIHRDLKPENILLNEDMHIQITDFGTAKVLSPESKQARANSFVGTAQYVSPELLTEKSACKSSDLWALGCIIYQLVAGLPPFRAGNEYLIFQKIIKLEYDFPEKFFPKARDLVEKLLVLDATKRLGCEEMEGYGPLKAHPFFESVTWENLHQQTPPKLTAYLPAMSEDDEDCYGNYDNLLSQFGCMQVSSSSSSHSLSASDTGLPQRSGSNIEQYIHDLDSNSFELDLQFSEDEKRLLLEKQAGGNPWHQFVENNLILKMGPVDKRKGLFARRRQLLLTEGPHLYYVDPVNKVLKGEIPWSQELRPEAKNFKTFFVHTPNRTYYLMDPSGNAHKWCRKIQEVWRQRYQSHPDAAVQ
Procedure: The cells are sown in a suitable cell density in microtitre plates (96-well format) and the test substances are added in the form of a concentration series. After four further days of cultivation in serum-containing medium, the tumour cell proliferation/tumour cell vitality can be determined by means of an Alamar Blue test system. A defined number of cells (for example 2000 cells) per culture/well in a volume of 180 μl of culture medium are sown in microtitre plates (96 well cell-culture plates) using a multichannel pipette. The cells are subsequently cultivated in a CO2 incubator (37° C. and 10% CO2). The test substances are dissolved, for example, in DMSO and subsequently employed in corresponding concentration (if desired in a dilution series) in the cell culture medium. The dilution steps can be adapted depending on the efficiency of the active ingredients and the desired spread of the concentrations. Cell culture medium is added to the test substances in corresponding concentrations. The addition of the test substances to the cells can take place on the same day as the sowing of the cells. To this end, in each case 20 μl of substance solution from the predilution plate are added to the cultures/wells. The cells are cultivated for a further 4 days at 37° Celsius and 10% CO2. In each case, 20 μl of Alamar Blue reagent are added per well, and the microtitre plates are incubated, for example, for a further seven hours in a CO2 incubator (at 37° C. and 10% CO2). The plates are measured in a reader with a fluorescence filter at a wavelength of 540 nm. The plates can be shaken gently immediately before the measurement. The absorbance value of the medium control (no cells and test substances used) is subtracted from all other absorbance values. The controls (cells without test substance) are set equal to 100 percent, and all other absorbance values are set in relation thereto (for example in % of control): Calculation: 100*(value with cells and test substance−value of medium control)/(value with cells−value of medium control) IC50 values (50% inhibition) are determined with the aid of statistics programs, such as, for example, RS1.

[3] = molecular target: T3, IRAK-1 (Homo sapiens, UniProt P51617); assay: Test for the inhibition of IRAK1 (autophosphorylation, flashplate); format: biochemical; details: enzyme
T3 construct: His6 (N); Dr.Jaekel Pool B, 232Y08C1.IRK
Outline: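 His6-IRAK1 (5.1 nM) autophosphorylation with 1 μM ATP plus ^33P-ATP, 180 min at 22° C, read as incorporated radioactivity. Blank with 1 μM staurosporin was subtracted and activity expressed as % of no-compound control. IC50 derived from the dilution series.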

T3 sequence (P51617 whole entry, species assumed): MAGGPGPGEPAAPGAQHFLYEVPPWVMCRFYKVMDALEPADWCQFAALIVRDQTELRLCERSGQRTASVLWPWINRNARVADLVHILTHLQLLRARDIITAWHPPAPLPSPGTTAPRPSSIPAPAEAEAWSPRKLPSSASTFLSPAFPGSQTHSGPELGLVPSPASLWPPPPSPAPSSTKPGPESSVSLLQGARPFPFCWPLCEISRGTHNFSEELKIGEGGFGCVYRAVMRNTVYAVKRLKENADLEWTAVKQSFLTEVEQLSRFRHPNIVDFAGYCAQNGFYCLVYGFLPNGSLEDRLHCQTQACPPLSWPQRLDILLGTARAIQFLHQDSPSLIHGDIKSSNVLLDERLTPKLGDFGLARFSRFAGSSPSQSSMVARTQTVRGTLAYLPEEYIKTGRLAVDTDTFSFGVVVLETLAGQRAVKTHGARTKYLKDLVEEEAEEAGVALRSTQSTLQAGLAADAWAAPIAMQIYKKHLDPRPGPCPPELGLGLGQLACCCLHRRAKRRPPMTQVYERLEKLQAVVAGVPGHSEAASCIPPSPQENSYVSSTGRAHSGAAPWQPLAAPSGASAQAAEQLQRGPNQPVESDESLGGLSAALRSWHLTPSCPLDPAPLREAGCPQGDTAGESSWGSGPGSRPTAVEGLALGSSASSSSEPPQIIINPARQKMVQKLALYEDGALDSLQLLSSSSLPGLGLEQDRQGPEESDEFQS

Row | SMILES | IC50 [1] | IC50 [2] | IC50 [3]
1 | Cn1cc(-c2cnc(N)c(-c3nc4ccc(C(=O)NCCc5ccc(F)c(F)c5)cc4[nH]3)c2)cn1 [Compound A128, N-[2-(3,4-difluorophenyl)ethyl]-2-[2-amino-5-(1-methyl-1H-pyrazol-4-yl)pyridin-3-yl]-3H-benzimidazole-5-carboxamide] | 1 to 100 nM | > 10000 nM | 100 to 10000 nM
2 | COc1ccc2nc(-c3cc(-c4ccc(C(=O)NC5CCN(C)CC5)s4)cnc3N)[nH]c2c1 [Compound A133, N-(1-Methylpiperidin-4-yl)-5-[6-amino-5-(6-methoxy-1H-benzimidazol-2-yl)pyridin-3-yl]thiophene-2-carboxamide] | 1 to 100 nM | > 10000 nM | 1 to 100 nM
3 | COc1ccc2nc(-c3cc(-c4ccsc4)cnc3N)[nH]c2c1 [Compound A144, 3-(6-methoxy-1H-benzimidazol-2-yl)-5-thiophen-3-ylpyridin-2-ylamine] | 1 to 100 nM | > 10000 nM | 100 to 10000 nM

Other lines, results leading:

Row | IC50 [1] | IC50 [2] | IC50 [3] | SMILES
4 | 1 to 100 nM | 100 to 10000 nM | 100 to 10000 nM | CC1CC(=O)NN=C1c1ccc2nc(-c3cc(-c4cnn(C)c4)cnc3N)[nH]c2c1 (racemic) [Compound A1, 6-{2-[2-amino-5-(1-methyl-1H-pyrazol-4-yl)pyridin-3-yl]-3H-benzimidazol-5-yl}-5-methyl-4,5-dihydro-2H-pyridazin-3-one]
5 | 1 to 100 nM | > 10000 nM | 100 to 10000 nM | COc1ccc2nc(-c3cc(-c4cnn(C)c4)cnc3N)[nH]c2c1 [Compound A43]
6 | 1 to 100 nM | 100 to 10000 nM | 100 to 10000 nM | Cn1cc(-c2cnc(N)c(-c3nc4cccc(CO)c4[nH]3)c2)cn1 [Compound A52]
7 | 1 to 100 nM | > 10000 nM | 1 to 100 nM | COc1ccc2nc(-c3cc(-c4cnn(C5CCNCC5)c4)cnc3N)[nH]c2c1 [Compound A92, 3-(6-Methoxy-1H-benzimidazol-2-yl)-5-(1-piperidin-4-yl-1H-pyrazol-4-yl)pyridin-2-ylamine]
